# Measurements as given in patent US10660967B2, “Curcumin conjugates and methods of use thereof” (priority 2016, dated 2020).
# Values joined by “and” are separate entries in the source; they are usually repeats but may differ in a detail not shown here. Equal entries are not always repeated. Where two headings read alike, the source gives them in different places.
# How the values were obtained:
# [1] = system: Candida albicans (local isolate); experiment: Antimicrobial MIC, agar dilution; details: Candida albicans (local isolate)
# [2] = system: Salmonella typhi ATCC19430; experiment: Antimicrobial MIC, agar dilution; format: cell-based; details: Salmonella enterica, read-out: Minimum inhibitory concentration (MIC)
# [3] = system: Staphylococcus aureus ATCC25923; experiment: Antimicrobial MIC, agar dilution; details: ATCC25923, 18 h, read-out: Minimum inhibitory concentration (MIC)
# [4] = system: Streptococcus pyogenes ATCC19615; experiment: Antimicrobial MIC, agar dilution
# [5] = system: Pseudomonas aeruginosa ATCC27853; experiment: Antimicrobial MIC, agar dilution
# [6] = system: carrageenan induced paw edema; experiment: Anti-inflammatory activity: acute carrageenan induced paw edema in rats; format: in vivo, Wister rats; details: 10 mg kg^−1 indomethacin mol equivalent; for % inhibition of edema / Mean edema thickness: intraperitoneally; for Mean edema thickness: mean ± SE; for Potency (% inhibition of edema relative to that of indomethacin reference standard): at 4 h effect
# In short: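 Wistar rats (120–150 g, n=6/group) received subplantar 1% carrageenan in the right hind paw, and DMSO-vehicle animals served as controls. Results are given as % inhibition of edema thickness versus control.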
# gastric mucosa = experiment: Ulcerogenic liability (ulcer index); format: in vivo, albino mice
# Description: The ulcerogenic liability was investigated in albino mice using the standard method. […] The animals were fasted 18 h before drug administration. […] The control group animals were given saline solution only with few drops of Tween 80. […] The gastric mucosa was examined with a magnifying lens (10×) for the presence of lesions and erosions.
# 1. percentage incidence of ulcer divided by 10;
# 2. average number of ulcers per stomach; and
# 3. average severity of ulcers;
# [7] = system: PHA-stimulated splenocytes; experiment: Proliferative response of PHA-stimulated splenocytes (MTT assay); format: cell-based
# Description: Immunomodulatory effects of the synthesized curcumin conjugates on the proliferative response of PHA-stimulated splenocytes were evaluated. The effect of curcumin and its amino acid conjugates on splenocyte viability and proliferation in response to a T cell miotgen (Phytohaemagglutinin; PHA) was evaluated using the MTT assay. Freshly prepared splenocytes (1×10^6 cells/200 μl/well) were cultured in a 96-well U-bottom microtiter plate (Nunc) in complete medium. Cells were treated with tested compounds at a final concentration of 10 μM, vehicle (DMSO) or left untreated in triplicate then incubated at 37° C. and 5% CO2. When testing the immunoregulatory effects of the compounds on splenocyte stimulation, PHA (5 μg/ml) was added to the culture media to induce T cell proliferation. The proliferative response to PHA+vehicle and vehicle alone served as controls. After 72 hr, media were removed after pelleting the cells by centrifugation and MTT salt solution (5 mg/ml) was added into each well then incubated at 37° C. for 4 h. Afterwards, formazan crystals were dissolved by adding 150 μl 10% sodium dodecyl sulfate (SDS). Absorbance was measured with a spectrophotometer at 570 nm and reference wavelength of 690 nm.
# Splenocyte stimulation index was determined as the ratio of O.D. values in tested compounds versus vehicle control cultures.
# [8] = system: lipopolysaccharide-stimulated peritoneal macrophages; experiment: Production of nitric oxide by lipopolysaccharide-stimulated peritoneal macrophages (Greiss reagent); format: cell-based; design: Potency (%): % inhibition of nitric oxide production relative to lipopolysaccharide-stimulated macrophages: concentration or dose not given beside the values; details: LPS-stimulated peritoneal macrophages
# Description: The effects of the synthesized curcumin conjugates on the production of nitric oxide (μM) by lipopolysaccharide-stimulated peritoneal macrophages were evaluated.
# Two milliliters of macrophage cells were seeded in 12-well tissue culture plates in nitrite-free medium supplemented with 0.1% bovine serum albumin and incubated at 37° C. LPS±epinephrine, norepinephrine, or dopamine at […] concentrations was added to some wells. The concentrations of LPS used ranged from 0.5 to 10 ng/ml. After incubation for 24 h, supernatants were collected for measuring nitric oxide (NO) by spectrophotometry. The production of NO was determined from the accumulation of nitrite (NO2), the metabolic end product of NO metabolism, in the medium using the Greiss reagent. About equal volumes (100 μl) of sample and Greiss reagent (1:1 mixture of 1% sulfanilamide in 5% phosphoric acid, and 0.1% a-naphthylamine in distilled water) were mixed and incubated at room temperature for 15 min, and absorbance was measured at 532 nm on a spectrophotometer.
# [9] = ATCC19615, 18 h, read-out: Minimum inhibitory concentration (MIC)
# [10] = ATCC19615, read-out: Minimum inhibitory concentration (MIC)
# [11] = ATCC27853, 18 h, read-out: Minimum inhibitory concentration (MIC)
# [12] = ATCC27853, read-out: Minimum inhibitory concentration (MIC)
# [13] = both, albino, mouse, in vivo, po, 10 mg/kg, 3 days
# [14] = orally, three successive days, 10 mg/kg indomethacin mol equivalent
compound,measurement,setting,value
"C[C@@H]1[C@H](O)[C@@H](C)/C=C/C=C/C=C/C=C/C=C/C=C/C=C/[C@H](O[C@@H]2O[C@H](C)[C@@H](O)[C@H](N)[C@@H]2O)C[C@@H]2O[C@](O)(C[C@@H](O)C[C@@H](O)[C@H](O)CC[C@@H](O)C[C@@H](O)CC(=O)O[C@H]1C)C[C@H](O)[C@H]2C(=O)O [Amphotericin B, reference compound]",Minimum inhibitory concentration (MIC),"[1]; 37° C., 18 h",0.39 µg/mL
same,Minimum inhibitory concentration (MIC),[1]; value in brackets,(0.422) μM
"O=C(O)c1cn(C2CC2)c2cc(N3CCNCC3)c(F)cc2c1=O [Ciprofloxacin, reference compound]",MIC,[2]; 18 h,2.4 µg/mL
same,MIC,[2],7.24 µM
same,MIC,[3],1250 µg/mL
same,MIC,[4]; [9],1250 µg/mL
same,MIC,[4]; [10],3770 µM
same,MIC,[5]; [11],4.8 µg/mL
same,MIC,[5]; [12],14.5 µM
COc1cc(/C=C/C(=O)CC(=O)/C=C/c2ccc(OC(=O)[C@@H](N)C(C)C)c(OC)c2)ccc1OC(=O)[C@@H](N)C(C)C.Cl.Cl [Compound 41],% inhibition of edema,[6]; 1 h,60%
same,Mean edema thickness,[6]; 1 h,0.97 ± 0.10 mm
same,% inhibition of edema,[6]; 2 h,50%
same,Mean edema thickness,[6]; 2 h,1.04 ± 0.12 mm
same,% inhibition of edema,[6]; 3 h,48%
same,Mean edema thickness,[6]; 3 h,0.93 ± 0.11 mm
same,% inhibition of edema,[6]; 4 h,46%
same,Mean edema thickness,[6]; 4 h,0.75 ± 0.09 mm
same,% inhibition of edema,[6]; 24 h,14%
same,Mean edema thickness,[6]; 24 h,0.71 ± 0.11 mm
same,Potency (% inhibition of edema relative to that of indomethacin reference standard),[6],53
CC[C@H](C)[C@H](N)C(=O)Oc1ccc(/C=C/C(=O)CC(=O)/C=C/c2ccc(OC(=O)[C@@H](N)[C@@H](C)CC)c(OC)c2)cc1OC.Cl.Cl [Compound 42],% inhibition of edema,[6]; 1 h,59% and 33%
same,Mean edema thickness,[6]; 1 h,0.99 ± 0.09 mm and 1.61 ± 0.07 mm
same,% inhibition of edema,[6]; 2 h,54% and 36%
same,Mean edema thickness,[6]; 2 h,0.95 ± 0.09 mm and 1.31 ± 0.09 mm
same,% inhibition of edema,[6]; 3 h,65% and 47%
same,% inhibition of edema,[6]; 4 h,98% and 76%
same,% inhibition of edema,[6]; 24 h,35% and 30%
same,Mean edema thickness,[6]; 24 h,0.54 ± 0.01 mm and 0.58 ± 0.08 mm
same,Potency (% inhibition of edema relative to that of indomethacin reference standard),[6],113 and 87
COc1cc(/C=C/C(=O)CC(=O)/C=C/c2ccc(OC(=O)[C@@H](N)CCC(N)=O)c(OC)c2)ccc1OC(=O)[C@@H](N)CCC(N)=O.Cl.Cl [Compound 43],% inhibition of edema,[6]; 1 h,46%
same,Mean edema thickness,[6]; 1 h,1.29 ± 0.19 mm
same,% inhibition of edema,[6]; 2 h,45%
same,Mean edema thickness,[6]; 2 h,1.14 ± 0.11 mm
same,% inhibition of edema,[6]; 3 h,43%
same,Mean edema thickness,[6]; 3 h,1.02 ± 0.14 mm
same,% inhibition of edema,[6]; 4 h,42%
same,Mean edema thickness,[6]; 4 h,0.81 ± 0.11 mm
same,% inhibition of edema,[6]; 24 h,31%
same,Mean edema thickness,[6]; 24 h,0.57 ± 0.09 mm
same,Potency (% inhibition of edema relative to that of indomethacin reference standard),[6],48
"CC(C)Cc1ccc(C(C)C(=O)O)cc1 (stereo not drawn) [Ibuprofen, 2-(4-isobutylphenyl)propanoic acid, reference compound]",Average of ulcer number,gastric mucosa; [13],0.33
same,Average severity of ulcer,gastric mucosa; [13],0.67
same,Number of animals with ulcer,gastric mucosa; [13],2/6
same,% Incidence of ulcer divided by 10,gastric mucosa; [14],3.33
"COc1ccc2c(c1)c(CC(=O)O)c(C)n2C(=O)c1ccc(Cl)cc1 [Indomethacin, 2-(1-(4-chlorobenzoyl)-5-methoxy-2-methyl-1H-indol-3-yl)acetic acid, reference compound]",% Incidence of ulcer divided by 10,gastric mucosa; [13],10
same,Average of ulcer number,gastric mucosa; [13],2
same,Number of animals with ulcer,gastric mucosa; [13],6/6
same,Average severity of ulcer,gastric mucosa; [14],1.67
same,Ulcer index,"gastric mucosa; sum of the three values, orally, three successive days, 10 mg/kg indomethacin mol equivalent",13.67
"CCn1cc(C(=O)O)c(=O)c2cc(F)c(N3CCNCC3)cc21 [Norfloxacin, reference compound]",MIC,[2]; 18 h,2.4 µg/mL
same,MIC,[2],7.52 µM
same,MIC,[3],1250 µg/mL
same,MIC,[4]; [9],625 µg/mL
same,MIC,[4]; [10],1960 µM
same,MIC,[5]; [11],4.8 µg/mL
same,MIC,[5]; [12],15 µM
"Phytohaemagglutinin [PHA, reference compound]",Stimulation Index (average ± SD),"[7]; PHA 5 μg/ml, 72 hr, compounds at 5 μM (method says 10 μM), ratio of O.D. versus vehicle control",2.78 ± 0.28
same,"splenocyte proliferation, fold relative to untreated control cells","[7]; in the presence of PHA, text of b265",2.76 fold
"lipopolysaccharide [LPS, reference compound]",Potency (%): % inhibition of nitric oxide production relative to lipopolysaccharide-stimulated macrophages,[8],0.00%
same,"Nitric oxide (nitrite) concentration, μM (average ± SD)","[8]; 24 h, nitrite by Greiss reagent",27.31 ± 2.56 µM
